Results: patent US4382084A, “Antibiotics” (Beecham Group Limited, priority 1975, dated 1983)
Each block holds one compound with its values, some of them ahead of it.

Experiments:
E. coli JT4 β-lactamase = E. coli JT4 β-lactamase (Escherichia coli, UniProt P62593); test: β-lactamase inhibition assay (Belgian Patent No. 827926); format: biochemical; conditions: enzyme of E. coli JT4; read-out: Approximate I50 (converted)
Method: (§1) When the compound prepared by the method of Example 1 was tested against certain enzymes by the β-lactamase inhibition assay described in Belgian Patent No. 827926 the following ^I 50 values were obtained: […]

[1] = target: Klebsiella aerogenes AE70 β-lactamase; test: as above; format: biochemical; conditions: enzyme of Klebsiella aerogenes AE70
Method: as §1

[2] = target: Staphylococcus aureus (Russell) β-lactamase (Staphylococcus aureus, UniProt P00807); test: as above; format: biochemical; conditions: enzyme of Staphylococcus aureus (Russell); read-out: Approximate I50 (converted)
Method: as §1

E. coli JT10 β-lactamase = test: as above; format: biochemical; conditions: enzyme of E. coli JT10
Method: as §1

Acute toxicity in mice = conditions: mouse, in vivo
[3] = system: Staphylococcus aureus Russell; test: MIC test of synergy with ampicillin; format: cell-based; conditions: ampicillin administered separately, read-out: MIC of ampicillin alone (not inhibited by)
Method: b. […] The following test results were obtained using a strain of Staphylococcus aureus Russell which is neither inhibited by 250 μg/ml of ampicillin nor inhibited by 5 μg/ml of synergist aministered separately.

Sequence of E. coli JT4 β-lactamase (P62593 24-286 limits assumed): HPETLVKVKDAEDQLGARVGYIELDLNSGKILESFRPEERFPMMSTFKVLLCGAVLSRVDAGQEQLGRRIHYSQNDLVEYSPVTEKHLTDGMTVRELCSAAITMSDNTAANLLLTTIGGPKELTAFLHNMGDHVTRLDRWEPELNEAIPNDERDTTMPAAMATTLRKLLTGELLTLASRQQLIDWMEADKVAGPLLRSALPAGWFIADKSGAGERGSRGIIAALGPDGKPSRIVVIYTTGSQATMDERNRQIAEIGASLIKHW

Compound: O=C(OCc1ccccc1)[C@H]1/C(=C/CN(Cc2ccccc2)Cc2ccccc2)O[C@@H]2CC(=O)N21 [Example 1]
IC50 (E. coli JT4 β-lactamase): 42.7 µM
Approximate I50 [1]: 0.40 mg/mL
IC50 [2]: 128 µM
Approximate I50 (E. coli JT10 β-lactamase): 0.24 mg/mL

Compound: CCCN(C/C=C1\O[C@@H]2CC(=O)N2[C@H]1C(=O)O)CCC [Example 12, 9-(N,N-dipropylamino)-9-deoxyclavulanio acid]
LD50 (Acute toxicity in mice; oral route): > 500 mg/kg
LD50 (Acute toxicity in mice; sc, sub-cutaneous route): > 500 mg/kg

MIC [3]: > 250 µg/mL
Compound: CC1(C)S[C@@H]2[C@H](NC(=O)[C@H](N)c3ccccc3)C(=O)N2[C@H]1C(=O)O [ampicillin]

Compound: C=CCN(CC=C)C/C=C1\O[C@@H]2CC(=O)N2[C@H]1C(=O)OCc1ccccc1 [Example 8, Benzyl diallylaminodeoxyclavulanate]
LD50 (Acute toxicity in mice; oral route): > 500 mg/kg
LD50 (Acute toxicity in mice; sc, sub-cutaneous route): > 500 mg/kg
